Earlier results, collected in patent US20230312703A1, “Method of Treating Psoriasis with IL-23 Specific Antibody” (Janssen Biotech, Inc., priority 2022, published 2023).
Several values for one entry are separate records, joined by “and”; a condition that tells them apart may be missing. Equal values may be shown once. Read-outs that look alike come from different tables or passages of the source.

Key:
[1] = system: participants with psoriasis
[2] = system: participants with psoriasis; conditions: Week 16, VOYAGE 1 & 2
[3] = system: participants with psoriasis; remark: listed apart in the source
[4] = system: participants with psoriasis; conditions: Week 16; VOYAGE 2
[5] = system: participants with psoriasis; conditions: Week 16; ESTEEM2
[6] = system: participants with psoriasis; conditions: ADVANCE (apremilast arm of cross-study comparison)
[7] = system: participants with psoriasis; conditions: Week 16; ESTEEM1

Compound | Proportion of participants who achieve an Static Physician Global Assessment (sPGA) score of 0 or 1 with at least ≥2 grade improvement from baseline at Week 16 (BSA 2-15%) ([1]; DISCOVER 1 & 2 (guselkumab arm of cross-study comparison)) | Proportion of participants who achieve an IGA score of 0 or 1 with ≥2 grade improvement from baseline (BSA 3-15%) ([1]; Week 16, DISCOVER 1 & 2, BSA 3-15%) | Proportion of participants who achieve an IGA score of 0 or 1 with ≥2 grade improvement from baseline (BSA 10-15%) [2] | Proportion of participants who achieve an IGA score of clear (0) at Week 16 (BSA >=10%) ([3]; VOYAGE 1, BSA >=10%) | Change in PSSD Symptom score from baseline: Mean (SD) ([3]; Week 16, VOYAGE 1) | Percent improvement in NAPSI score from baseline: Mean (SD) ([3]; Week 16, VOYAGE 1) | Proportion of participants who achieve a PASI 90 response ([3]; Week 16, VOYAGE 1) | Proportion of participants who achieve a PASI 100 response ([3]; Week 16, VOYAGE 1) | Proportion of participants who achieve a ss-IGA score of 0 or 1 with ≥2-grade improvement from baseline among randomized participants with scalp psoriasis and an ss-IGA score ≥2 at baseline ([3]; Week 16, VOYAGE 1) | Proportion of participants with ≥4-point reduction (improvement) in PSSD Itch score from baseline among participants with a PSSD Itch score ≥4 at baseline ([3]; Week 16, VOYAGE 1) | Proportion of participants who achieve a PASI 90 response [4] | Proportion of participants who achieve a PASI 90 response [5] | Proportion of participants who achieve an Static Physician Global Assessment (sPGA) score of 0 or 1 with at least ≥2 grade improvement from baseline at Week 16 (BSA 2-15%) [6] | Proportion of participants who achieve a PASI 90 response [7] | Proportion of participants who achieve a ss-IGA score of 0 or 1 with ≥2-grade improvement from baseline among randomized participants with scalp psoriasis and an ss-IGA score ≥2 at baseline [7]
Guselkumab: fully human IgG1 lambda monoclonal antibody that binds the p19 subunit of human IL-23; heavy chain SEQ ID NO: 9, light chain SEQ ID NO: 10 | 55.7% | 55.7% vs 12.2% | 82.9% vs 9.1% | 47.7% vs 1.1% | −41.9 (24.61) vs | 34.37 (42.448) vs Percent | 73.3% vs 2.9% and 73.3% | 37.4% vs 0.6% | 83.4% vs 14.5% and 83.4% | 75.0% vs 5.7% | 70.0% vs 2.4% | – | – | – | –
CCOc1cc([C@@H](CS(C)(=O)=O)N2C(=O)c3cccc(NC(C)=O)c3C2=O)ccc1OC [Apremilast] | – | – | – | – | – | – | – | – | – | – | – | 8.8% | 21.6% | 9.8% | 46.5%
